Test results as given in PubChem BioAssay AID330 (DTP/NCI, 2004).
“And” between values parts separate entries of the source, which are not always exact repeats. Equal values may be shown once. Toxic doses and inconclusive results are not listed. The calls were made as follows: active = survival T/C of 150% or more; inactive = T/C below 125% in these data.

Test system: P388 leukemia ip, CD2F1 mice, survival T/C
Test: NCI In Vivo Anticancer Drug Screen. Data for tumor model P388 Leukemia (intraperitoneal) in CD2F1 (CDF1) mice
Conditions: endpoint: median survival time, higher = longer survival
Outline: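 Mice carrying the transplanted tumor received test compound or vehicle. Survival was recorded in each group, and the value is the treated-group measurement divided by that of the vehicle-treated control group.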

[1] = dose: 50.0 mg/kg/injection, schedule: Q01DX005 (ip), vehicle: saline with Tween-80
[2] = dose: 100.0 mg/kg/injection, schedule: Q01DX005 (ip), vehicle: saline with Tween-80
[3] = dose: 50.0 mg/kg/injection, schedule: Q01DX009 (ip), vehicle: Klucel (hydroxypropylcellulose) (HPC)
[4] = dose: 100.0 mg/kg/injection, schedule: Q01DX009 (ip), vehicle: Klucel (hydroxypropylcellulose) (HPC)
[5] = dose: 200.0 mg/kg/injection, schedule: Q01DX009 (ip), vehicle: Klucel (hydroxypropylcellulose) (HPC)
[6] = dose: 25.0 mg/kg/injection, schedule: Q01DX009 (ip), vehicle: saline
[7] = dose: 50.0 mg/kg/injection, schedule: Q01DX005 (ip), vehicle: Klucel (hydroxypropylcellulose) (HPC)
[8] = dose: 100.0 mg/kg/injection, schedule: Q01DX005 (ip), vehicle: Klucel (hydroxypropylcellulose) (HPC)
[9] = dose: 200.0 mg/kg/injection, schedule: Q01DX005 (ip), vehicle: Klucel (hydroxypropylcellulose) (HPC)
[10] = dose: 50.0 mg/kg/injection, schedule: Q01DX009 (ip), vehicle: saline
[11] = dose: 100.0 mg/kg/injection, schedule: Q01DX009 (ip), vehicle: saline
[12] = dose: 200.0 mg/kg/injection, schedule: Q01DX009 (ip), vehicle: saline
[13] = dose: 25.0 mg/kg/injection, schedule: Q01DX009 (ip), vehicle: saline with Tween-80
[14] = dose: 50.0 mg/kg/injection, schedule: Q01DX009 (ip), vehicle: saline with Tween-80
[15] = dose: 50.0 mg/kg/injection, schedule: Q01DX005 (ip), vehicle: saline
[16] = dose: 100.0 mg/kg/injection, schedule: Q01DX009 (ip), vehicle: saline with Tween-80
[17] = dose: 200.0 mg/kg/injection, schedule: Q01DX005 (ip), vehicle: saline with Tween-80

Measured: T/C

COC1=CC(=O)c2c(O)cc(OC)c(O)c2C1=O
inactive: dose: 1.25 mg/kg/injection, schedule: Q01DX009 (ip), vehicle: saline + alcohol 104 % of control | dose: 1.25 mg/kg/injection, schedule: Q01DX009 (ip), vehicle: saline with Tween-80 117 % of control | dose: 2.5 mg/kg/injection, schedule: Q01DX009 (ip), vehicle: saline + alcohol 104 % of control | dose: 2.5 mg/kg/injection, schedule: Q01DX009 (ip), vehicle: saline with Tween-80 115 % of control | dose: 5.0 mg/kg/injection, schedule: Q01DX009 (ip), vehicle: saline + alcohol 104 % of control | dose: 5.0 mg/kg/injection, schedule: Q01DX009 (ip), vehicle: saline with Tween-80 110 % of control | dose: 10.0 mg/kg/injection, schedule: Q01DX009 (ip), vehicle: saline + alcohol 106 % of control | dose: 10.0 mg/kg/injection, schedule: Q01DX009 (ip), vehicle: saline with Tween-80 110 % of control | dose: 20.0 mg/kg/injection, schedule: Q01DX009 (ip), vehicle: saline + alcohol 106 % of control | dose: 20.0 mg/kg/injection, schedule: Q01DX009 (ip), vehicle: saline with Tween-80 106 % of control

C[CH2][Sn]([Cl])([CH2]C)[O][Sn]([CH2]C)([CH2]C)[O][Sn]([Cl])([CH2]C)[CH2]C
inactive: dose: 6.25 mg/kg/injection, schedule: Q01DX005 (ip), vehicle: Klucel (hydroxypropylcellulose) (HPC) 118 % of control and 121 % of control | dose: 12.5 mg/kg/injection, schedule: Q01DX005 (ip), vehicle: Klucel (hydroxypropylcellulose) (HPC) 113 % of control | dose: 25.0 mg/kg/injection, schedule: Q01DX005 (ip), vehicle: Klucel (hydroxypropylcellulose) (HPC) 111 % of control

Cc1ccc(S(=O)(=O)[n+]2ccccc2)cc1
inactive: dose: 100.0 mg/kg/injection, schedule: Q01DX001 (ip), vehicle: saline 104 % of control | dose: 200.0 mg/kg/injection, schedule: Q01DX001 (ip), vehicle: saline 100 % of control | dose: 400.0 mg/kg/injection, schedule: Q01DX001 (ip), vehicle: saline 100 % of control

C=C(C#N)C1OC2OC(C)(C)OC2C1OC (stereo not given)
inactive: [1] 107 % of control | [2] 118 % of control

CC(C)CC(NP(=S)(c1ccccc1)c1ccccc1)C(=O)O (stereo not given)
inactive: [3] 111 % of control | [4] 105 % of control | [5] 108 % of control

O=S(=O)([O-])[O-].OCCNCCNCC[OH2+].OCCNCCNCC[OH2+].[Ni+2]
inactive: dose: 12.5 mg/kg/injection, schedule: Q01DX009 (ip), vehicle: saline 102 % of control | [6] 93 % of control

NC(=O)c1cccn(-c2ccccc2)c1=S
inactive: [7] 89 % of control | [8] 105 % of control | [9] 105 % of control

Cn1cnc([N+](=O)[O-])c1Sc1n[nH]c(N)n1
inactive: [7] 111 % of control | [8] 117 % of control | [9] 108 % of control

CN(N)c1nnnn1-c1ccccc1
inactive: [3] 104 % of control | [4] 117 % of control | [5] 113 % of control

COP(=O)(CC(=O)CCCCCO[Si](C)(C)C(C)(C)C)OC
inactive: dose: 60.0 mg/kg/injection, schedule: Q01DX005 (ip), vehicle: saline 98 % of control | dose: 120.0 mg/kg/injection, schedule: Q01DX005 (ip), vehicle: saline 99 % of control | dose: 240.0 mg/kg/injection, schedule: Q01DX005 (ip), vehicle: saline 100 % of control

CCCCCCC(/C=C/c1ccc(Cl)c(Cl)c1)=N\NC(=O)C(N)=O
inactive: [10] 101 % of control | [11] 101 % of control | [12] 110 % of control

C[C@]12CC[C@H](O)CC1=CC[C@@H]1[C@@H]2CC[C@]2(C)c3nc4ccccc4cc3C[C@@H]12
inactive: dose: 12.5 mg/kg/injection, schedule: Q01DX009 (ip), vehicle: saline with Tween-80 104 % of control | dose: 12.5 mg/kg/injection, schedule: Q04DX003 (ip), vehicle: saline with Tween-80 100 % of control | [13] 100 % of control | dose: 25.0 mg/kg/injection, schedule: Q04DX003 (ip), vehicle: saline with Tween-80 100 % of control | [14] 95 % of control | dose: 50.0 mg/kg/injection, schedule: Q04DX003 (ip), vehicle: saline with Tween-80 90 % of control

COc1cncn2c(C)nnc12
inactive: [15] 100 % of control | dose: 100.0 mg/kg/injection, schedule: Q01DX005 (ip), vehicle: saline 99 % of control | dose: 200.0 mg/kg/injection, schedule: Q01DX005 (ip), vehicle: saline 94 % of control

S=c1s[nH]c2c1CCC2
inactive: [14] 98 % of control | [10] 105 % of control | [16] 101 % of control | [11] 110 % of control | dose: 200.0 mg/kg/injection, schedule: Q01DX009 (ip), vehicle: saline with Tween-80 105 % of control | [12] 120 % of control | dose: 400.0 mg/kg/injection, schedule: Q01DX009 (ip), vehicle: saline with Tween-80 95 % of control

CCN1C(=O)C(=NO)C(=O)N(CC)C1=S.CCN1C(=O)C(=N[O-])C(=O)N(CC)C1=S.CCN1C(=O)C(=N[O-])C(=O)N(CC)C1=S.[Fe+3]
inactive: dose: 100.0 mg/kg/injection, schedule: Q04DX002 (ip), vehicle: saline with Tween-80 94 % of control | dose: 200.0 mg/kg/injection, schedule: Q04DX002 (ip), vehicle: saline with Tween-80 102 % of control

CCOC(=O)CC(=O)c1ccc(Cl)cc1
inactive: [6] 100 % of control | [10] 100 % of control | [11] 104 % of control | [12] 101 % of control

COSc1ccc(OC)cc1
inactive: dose: 100.0 mg/kg/injection, schedule: Q04DX003 (ip), vehicle: saline 102 % of control | dose: 200.0 mg/kg/injection, schedule: Q04DX003 (ip), vehicle: saline 97 % of control

COc1c2occc2c(CCl)c2ccc(=O)oc12
inactive: dose: 15.0 mg/kg/injection, schedule: Q01DX005 (ip), vehicle: Klucel (hydroxypropylcellulose) (HPC) 115 % of control | dose: 30.0 mg/kg/injection, schedule: Q01DX005 (ip), vehicle: Klucel (hydroxypropylcellulose) (HPC) 111 % of control | dose: 60.0 mg/kg/injection, schedule: Q01DX005 (ip), vehicle: Klucel (hydroxypropylcellulose) (HPC) 111 % of control and 116 % of control

CCN(CC)C(=Nc1ccccc1)NC#N
inactive: [7] 110 % of control | [8] 105 % of control | [9] 96 % of control

CCCCCCCC(=O)N/N=C/c1ccc(O)c(OCC)c1
inactive: [1] 95 % of control | [2] 90 % of control

CP1(=S)CCC2=C1c1ccc(O)cc1CC2 (stereo not given)
inactive: [10] 100 % of control | [11] 100 % of control | [12] 101 % of control

OC12CCC(c3ccccc3)(CC1)CC2
inactive: [3] 104 % of control | [4] 100 % of control | [5] 100 % of control

N#CC1CCCCCc2c1[nH]c1ccccc21 (stereo not given)
inactive: [13] 97 % of control | [14] 103 % of control | [16] 103 % of control

C#Cc1cccc(N=Cc2cc([N+](=O)[O-])ccc2O)c1
inactive: [1] 100 % of control | [2] 99 % of control | [17] 93 % of control

O=C1NC2CCCC1C(c1ccccc1Cl)NC2c1ccccc1Cl (stereo not given)
inactive: dose: 100.0 mg/kg/injection, schedule: Q04DX003 (ip), vehicle: suspension in saline 98 % of control | dose: 200.0 mg/kg/injection, schedule: Q04DX003 (ip), vehicle: suspension in saline 100 % of control | dose: 400.0 mg/kg/injection, schedule: Q04DX003 (ip), vehicle: suspension in saline 100 % of control

O=C([O-])[O-].O=S(=O)(O)O.[Co+3].[NH-]CC[NH-].[NH-]CC[NH-]
inactive: [10] 90 % of control | [11] 93 % of control | [12] 94 % of control

COc1c(OC2OC(CO)C(O)C(O)C2O)cc2c(c1OC)-c1ccc(OC)c(=O)cc1C(NC(C)=O)CC2 (stereo not given)
inactive: dose: 12.5 mg/kg/injection, schedule: Q01DX005 (ip), vehicle: saline 108 % of control | dose: 25.0 mg/kg/injection, schedule: Q01DX005 (ip), vehicle: saline 106 % of control | [15] 117 % of control and 121 % of control

O=S1(=O)C=C(Cl)C1
inactive: [1] 110 % of control | [2] 96 % of control

c1ccc2c(-c3ccncc3)c3c(ccc4ccccc43)cc2c1
inactive: [1] 100 % of control | [2] 98 % of control | [17] 89 % of control

CCOC(CNC(C)c1ccc2cc(OC)c(OC)cc2c1)OCC (stereo not given)
inactive: dose: 25.0 mg/kg/injection, schedule: Q01DX009 (ip), vehicle: Klucel (hydroxypropylcellulose) (HPC) 100 % of control | [3] 114 % of control | [4] 116 % of control | [5] 121 % of control
